From US4161538A, “Substituted phenylacetic acid derivatives and process for the preparation thereof” (Sankyo Company Limited, priority 1977, dated 1979)
Structures can show the parent of a compound that is named as a salt.

Assays:
carrageenin edema = test: Anti-inflammatory activity, carrageenin edema method; type: in vivo, Wistar strain rat; settings: for inhibition in vivo at 25 mg/kg: Rattus norvegicus, po
From the text: The carrageenin edema method was employed using Wistar strain rat. [C. A. Winter, E. A. Risley, G. W. Nuss; J. Pharmacol. Exp. Therap., 141, 369(1963)]

thermally induced pain = test: Analgesic activity, thermally induced pain method; type: in vivo, Wistar strain rat; settings: for Inhibition(%) Analgesic 19 mg/kg (P.O.): rat; for inhibition in vivo at 19 mg/kg: Rattus norvegicus, po, 19 mg/kg P.O.
From the text: [Y. Iizuka, K. Tanaka; Folia Pharmacol. Jap., 70, 697(1974)]

CC(C(=O)O)c1ccc(CC2CCCC2=O)cc1 [2-(4-(2-Oxocyclopentan-1-ylmethyl)phenyl)-propionic acid I-a] [2-[4-(2-Oxocyclopentan-1-ylmethyl)phenyl]-propionic Acid L-Arginine Salt]
Inhibition(%) Anti-inflammatory 25 mg/kg (P.O.) (carrageenin edema; rat, 25 mg/kg P.O.): 69.8%
Inhibition(%) Analgesic 19 mg/kg (P.O.) (thermally induced pain): 66.7%

O=C(O)Cc1ccc(CC2CCCC2=O)cc1 (stereo not shown) [4-(2-Oxocyclopentan-1-ylmethyl)phenylacetic Acid]
inhibition in vivo at 25 mg/kg (carrageenin edema; 25 mg/kg P.O.): 65.6%
inhibition in vivo at 19 mg/kg (thermally induced pain): 42.5%

CC(C(=O)O)c1ccc(CC2CCCC2=O)cc1 (stereo not shown) [2-[4-(2-Oxocyclopentan-1-ylmethyl)phenyl]-propionic Acid]
inhibition in vivo at 25 mg/kg (carrageenin edema; 25 mg/kg P.O.): 51.4%

CC(C(=O)O)c1ccc(CC2CCCC2=O)cc1 (stereo not shown) [2-(4-(2-Oxocyclopentan-1-ylmethyl)phenyl)-propionic acid] [2-[4-(2-Oxocyclopentan-1-ylmethyl)phenyl]-propionic Acid]
Inhibition(%) Analgesic 19 mg/kg (P.O.) (thermally induced pain): 95.8%

CC(C(=O)O)c1ccc(CC2CCCCC2=O)cc1 (stereo not shown) [2-[4-(2-Oxocyclohexan-1-ylmethyl)phenyl]-propionic Acid]
inhibition in vivo at 25 mg/kg (carrageenin edema; 25 mg/kg P.O.): 79.9%
inhibition in vivo at 19 mg/kg (thermally induced pain): 63.3%

CCCCC1C(=O)N(c2ccccc2)N(c2ccccc2)C1=O [Phenylbutazone, reference compound]
inhibition in vivo at 25 mg/kg (carrageenin edema; 25 mg/kg P.O.): 30.6%
Inhibition(%) Anti-inflammatory (100 mg/kg) (carrageenin edema; rat, 100 mg/kg (P.O.), reference medicine): 57.4%
inhibition in vivo at 19 mg/kg (thermally induced pain): 37%

CC(C(=O)O)c1ccc(CC2CCCCC2=NO)cc1 (stereo not shown) [2-[4-(2-Hydroxyiminocyclohexan-1-ylmethyl)phenyl]propionic Acid]
inhibition in vivo at 25 mg/kg (carrageenin edema; 25 mg/kg P.O.): 78.2%
inhibition in vivo at 19 mg/kg (thermally induced pain): 53.1%

O=C(O)Cc1ccc(CC2CCCCC2=O)cc1 (stereo not shown) [4-(2-Oxocyclohexan-1-ylmethyl)phenylacetic Acid]
inhibition in vivo at 25 mg/kg (carrageenin edema; 25 mg/kg P.O.): 35.1%
inhibition in vivo at 19 mg/kg (thermally induced pain): 45.1%

O=C(O)Cc1ccc(CC2CCCC2=NO)cc1 (single isomer, unassigned) [4-(2-Hydroxyiminocyclopentan-1-ylmethyl)phenylacetic Acid]
inhibition in vivo at 25 mg/kg (carrageenin edema; 25 mg/kg P.O.): 49.7%
inhibition in vivo at 19 mg/kg (thermally induced pain): 54.8%

CC(C(=O)O)c1ccc(CC2CCCC2=NO)cc1 (stereo not shown) [2-[4-(2-Hydroxyiminocyclopentan-1-ylmethyl)phenyl]propionic Acid]
inhibition in vivo at 25 mg/kg (carrageenin edema; 25 mg/kg P.O.): 67.4%
inhibition in vivo at 19 mg/kg (thermally induced pain): 70%
